# Laboratory results as given in PMC10693528, “A high-throughput metabolomics in vitro platform for the characterization of hepatotoxicity” (Cell Biology and Toxicology, 2023).
# Where “and” joins values, the source holds several entries; their conditions need not be identical. Identical values can stand only once.
# What was measured:
# HepG2 cells [1] = experiment: LC-MS/MS targeted intracellular metabolomics; format: cell-based, human; conditions: Suppl Fig 9; C3 (EC15 ATP), 48 h; Bezafibrate lines = Plates 1-6 in order
# Method: Metabolite profiling of cells was performed directly in the same 96-well plate according to a standardized protocol described below. In order to prevent any interaction with the cell material, the automatic sampler was adjusted to pick up the sample from the supernatant at a specified depth avoiding the contact with the bottom of the plate.
# After the initial quenching step (50 μL isopropanol 80%), additional 70 μL of isopropanol 80%, containing internal standards (methionine-D3, tryptophan-D5, arginine-13C6-15N4, Boc-Ala-Gly-Gly-Gly-OH, coenzyme Q1, coenzyme Q2, coenzyme Q4) were added to each well. The internal standards were used for quality control by visual inspection (signal intensity, peak shape, retention time); they were not used for normalization. Afterwards, plates were shaken for 5 min, 750 rpm at 20 °C, and placed for 30 s in the ultrasonic device. Then, the plates were centrifugated for 10 min, at 5485 g, 15 °C. Further, 2.5 μL of the extract were injected each for reversed-phase and hydrophilic interaction liquid chromatography followed by MS/MS detection (AB Sciex QTrap 6500+) using the positive and negative ionization mode. For reverse-phase high-performance liquid chromatography (RP-HPLC, Ascentis Express C18, 5 cm × 2.1 mm, 2.7 μm Supelco), gradient elution was performed with mobile phase A, water/methanol/0.1 M ammonium formate (1:1:0.02, w/w), and B, methyl-tert-butylether/2-propanol/methanol/0.1 M ammonium formate/formic acid (4:2:1:0.07:0.035, w/w) 5.9 min linear gradient: 0 min 100% A, 0.5 min 75% A, 5.9 min 10% A; followed by 0% A until 6.7 min; re-equilibration at 100% A until 7.7 min; flow rate 600 μL/min; column temperature 40 °C HILIC (ZIC-HILIC, 2.1 × 100 mm, 3.5 μm, Supelco) gradient elution was performed with mobile phase C, acetonitrile/water (99:1, v/v) with 0.2% (v) acetic acid, and D, 7 mM ammonium acetate with 0.2% (v) acetic acid (5.0 min linear gradient: 0 min 100% C, 5 min 10% C; followed by a linear gradient back to 100%C until 6.5 min; re-equilibration at 100% C until 7.5 min; flow rate 600 μL/min; column temperature 40 °C.). Two LC-MS systems with identical configuration were used for the analysis. Normalization to lyophilized reference samples (see below) was used to compensate for variation from between analytical batches. The efficiency of this normalization procedure was checked by principal component analysis (PCA), confirming that Pool samples from different analytical batches clustered together.
# Reference samples derived from lyophilized untreated HepG2 cells (technical control samples) were measured in parallel throughout the entire analytical process. Data were normalized against the median of these lyophilized HepG2 cells reference samples, to give normalized ratios (performed for each sample per metabolite). This compensated for inter- and intra-instrumental variation. To correct for small differences in cell numbers within and between different treatment groups, data were also normalized to the within sample median, as described in detail by (Ramirez et al. [2018]). For intracellular metabolomic analysis, the median of each sample was calculated across all the 221 measured metabolites.
# To generate metabolic profiles for the different treatments, heteroscedastic t test (Welch test) was applied to log-transformed normalized metabolite data to compare treated groups with their respective controls.
# Principal component analysis (PCA) and hierarchical clustering (HCA) analyses were performed using R software environment (https://www.r-project.org/). PCA was conducted using the ropls package (Thévenot et al. [2015]) with log10-transformed input data and standard scaling. HCA was performed using the pvclust package (Suzuki et al. [2019]), (https://CRAN.R-project.org/package=pvclust). Input: log10(Ratio), clustering method: Ward D2, distance method: Manhattan, bootstrapping: 10000 times.
# [2] = Cell viability (ATP, CellTiter-Glo) in parallel with metabolomics experiments; conditions: human, HepG2 cells, Percentage of viability (ATP) compared to the vehicle control, Bezafibrate positive control, Bezafibrate 1000 μM, 48 h, one value per experiment plate, n = 6
# Method: (§1) HepG2 cells (ECACC, UK, maximum passage number 9) were maintained and grown on Dulbecco’s MEM media supplemented with 1% v/v of penicillin/streptomycin, L-glutamine (200 mM, 1% v/v), non-essential amino acids (100x, 1% v/v), and 10% FBS (PAN-Biotech, Aidenbach, Germany) in 75 cm^2 culture flasks (TPP, Switzerland). For cell passaging (~ 80% confluency) media was removed and cells were washed twice with pre-warmed calcium and magnesium free Dulbecco’s PBS (PAN-Biotech, Aidenbach, Germany). Trypsin was used for cell detachment. Then, 20 mL culture medium was added, and single-cell suspensions were obtained by passing the suspension through a Combitip (Eppendorf, Germany). A fraction of the cell suspension was then transferred to a new culture vessel. For experiments, 15,000 cells per well (passage 5-9) were seeded in 96-well flat-bottom plates (TPP, Switzerland) and incubated for 24 h for cell attachment (37 °C and 5% CO^2). Afterwards, culture media were exchanged, test substances applied, and plates incubated for 48 h (37 °C and 5% CO^2).
# (§2) For each substance, one 96-well plate was set up with 6 replicates per concentration, 12 replicates for vehicle controls (yielding a final concentration of 0.5% DMSO in the well), 6 replicates for positive controls (Bezafibrate 1000 μM), and 6 replicates for blank controls (media without cells). To minimize potential evaporation, the outer rows and columns of the plate were omitted and filled with PBS instead. Reference samples prepared from lyophilized HepG2 cells were measured in parallel throughout the entire analytical process (technical replicates). […] Lyophilized HepG2 cells reference samples were used to account for variability between plates and in concentration series for linearity checks. After 48 h, the assays were stopped by washing the wells once with 100 μL 0.9% NaCl followed by snap freezing the plates on liquid nitrogen for 5 s. Plates were placed immediately on dry ice and 50 μL ice-cooled isopropanol 80% (v/v) were added to quench metabolism and precipitate proteins. Plates were stored at − 80 °C until LC/ MS analysis.
# HepG2 cells [3] = experiment: as above; conditions: Bezafibrate 1000 μM, 48 h, one value per experiment plate, n = 6
# Method: as §1, §2
structure (smiles),measurement,setting,value
CC(C)(Oc1ccc(CCNC(=O)c2ccc(Cl)cc2)cc1)C(=O)O [Bezafibrate],5-Hydroxytryptophan level vs controls,HepG2 cells [1],0.84 and 0.77 and 0.76 and 0.85 and 0.74 and 0.65
same,Carnitine level vs controls,HepG2 cells [1],0.72 and 0.74 and 0.84 and 0.77 and 0.80
same,Ceramide (d18:1.C20:0) level vs controls,HepG2 cells [1],0.63 and 0.66 and 0.56 and 0.62 and 0.64 and 0.59
same,Ceramide (d18:1.C24:1) level vs controls,HepG2 cells [1],0.66 and 0.91 and 0.98 and 0.80 and 0.85 and 0.68
same,Ceramide (d18:1.C24:2) level vs controls,HepG2 cells [1],0.83 and 1.08 and 1.11 and 0.89 and 0.90 and 0.91
same,Ceramide (d18:2.C24:1) level vs controls,HepG2 cells [1],0.56 and 0.62 and 0.68 and 0.89 and 0.63
same,Choline plasmalogen (C36:4) level vs controls,HepG2 cells [1],0.65 and 0.80 and 0.68 and 0.69 and 0.73 and 0.72
same,Choline plasmalogen (C36:5) level vs controls,HepG2 cells [1],0.78 and 0.90 and 0.80 and 0.83 and 0.82 and 0.79
same,Creatine level vs controls,HepG2 cells [1],0.80 and 0.82 and 0.73 and 0.78 and 0.67 and 0.66
same,Glycerol-3-phosphate level vs controls,HepG2 cells [1],0.68 and 0.43 and 0.45 and 0.54 and 0.44 and 0.39
same,Hexanoylcarnitine level vs controls,HepG2 cells [1],0.65 and 0.54 and 0.50 and 0.59 and 0.62
same,Ketoleucine level vs controls,HepG2 cells [1],0.73 and 0.72 and 0.74 and 0.77 and 1.10
same,Lysophosphatidylcholine (C14:0) level vs controls,HepG2 cells [1],2.27 and 1.82 and 2.09 and 1.97 and 1.85 and 1.87
same,Lysophosphatidylcholine (C16:0) level vs controls,HepG2 cells [1],1.86 and 1.92 and 1.98 and 2.08 and 1.93 and 2.14
same,Lysophosphatidylcholine (C16:1) level vs controls,HepG2 cells [1],1.95 and 2.13 and 2.01 and 2.17 and 1.86 and 1.72
same,Lysophosphatidylcholine (C20:4) level vs controls,HepG2 cells [1],1.22 and 1.67 and 1.47 and 1.90 and 1.86 and 1.44
same,Lysophosphatidylcholine (C24:0) level vs controls,HepG2 cells [1],1.01 and 1.18 and 1.11 and 1.20 and 1.21 and 1.29
same,Lysophosphatidylcholine (C24:1) level vs controls,HepG2 cells [1],1.10 and 1.03 and 1.13 and 1.26 and 1.12
same,Lysophosphatidylethanolamine (C16:0) level vs controls,HepG2 cells [1],2.47 and 2.37 and 2.23 and 2.12 and 2.10 and 2.19
same,Lysophosphatidylethanolamine (C18:0) level vs controls,HepG2 cells [1],2.21 and 2.07 and 1.76 and 1.77 and 2.04
same,Lysophosphatidylethanolamine (C18:1) level vs controls,HepG2 cells [1],2.45 and 2.31 and 1.97 and 2.19 and 2.11 and 2.16
same,N-Acetylaspartate level vs controls,HepG2 cells [1],1.54 and 1.49 and 1.66 and 1.48 and 1.41 and 1.25
same,Pantothenic acid level vs controls,HepG2 cells [1],0.68 and 0.77 and 0.59 and 0.72 and 0.70 and 0.76
same,Phosphatidylcholine (C32:0) level vs controls,HepG2 cells [1],0.82 and 0.70 and 0.79 and 0.88 and 0.83 and 0.76
same,Phosphatidylcholine (C34:1) level vs controls,HepG2 cells [1],0.83 and 0.75 and 0.78 and 0.82 and 0.74
same,Phosphatidylcholine (C34:3) level vs controls,HepG2 cells [1],1.02 and 1.18 and 1.17 and 1.09 and 1.15 and 1.04
same,Phosphatidylcholine (C36:1) level vs controls,HepG2 cells [1],0.86 and 0.88 and 0.73 and 0.84 and 0.79 and 0.90
same,Phosphatidylcholine (C36:2) level vs controls,HepG2 cells [1],0.66 and 0.71 and 0.62 and 0.69 and 0.65
same,Phosphatidylcholine (C36:3) level vs controls,HepG2 cells [1],0.90 and 1.03 and 0.84 and 0.96 and 0.97 and 0.89
same,Phosphatidylcholine (C36:4) level vs controls,HepG2 cells [1],1.00 and 0.93 and 0.81 and 0.98 and 0.95 and 0.94
same,Phosphatidylcholine (C36:5) level vs controls,HepG2 cells [1],0.78 and 0.81 and 0.63 and 0.76 and 0.72 and 0.75
same,Phosphatidylethanolamine (C36:3) level vs controls,HepG2 cells [1],0.90 and 0.87 and 0.84
same,Phosphatidylethanolamine (C38:3) level vs controls,HepG2 cells [1],0.72 and 0.70 and 0.64 and 0.75 and 0.68 and 0.66
same,Phosphatidylethanolamine (C38:5) level vs controls,HepG2 cells [1],0.90 and 1.00 and 0.86 and 0.98 and 0.87
same,Phosphatidylethanolamine (C38:6) level vs controls,HepG2 cells [1],0.92 and 0.91 and 0.95 and 1.01 and 0.98
same,Phosphatidylethanolamine (C40:7) level vs controls,HepG2 cells [1],0.79 and 0.81 and 0.75 and 0.88 and 0.82
same,Phosphocholine level vs controls,HepG2 cells [1],0.78 and 0.69 and 0.56 and 0.63
same,Propionylcarnitine level vs controls,HepG2 cells [1],0.66 and 0.78 and 0.40 and 0.58 and 0.54 and 0.57
same,S-Adenosylhomocysteine level vs controls,HepG2 cells [1],0.92 and 0.98 and 0.70 and 0.93 and 0.78 and 0.79
same,Sphingomyelin (d32:2) level vs controls,HepG2 cells [1],0.49 and 0.71 and 0.69 and 0.75 and 0.59 and 0.78
same,Sphingomyelin (d33:1) level vs controls,HepG2 cells [1],1.19 and 1.34 and 1.15 and 1.32 and 1.18 and 1.20
same,Sphingomyelin (d34:0) level vs controls,HepG2 cells [1],0.96 and 1.09 and 1.25 and 1.15 and 1.11
same,Sphingomyelin (d35:1) level vs controls,HepG2 cells [1],0.86 and 0.95 and 0.88 and 0.85 and 0.92
same,Sphingomyelin (d36:1) level vs controls,HepG2 cells [1],0.86 and 0.96 and 0.90 and 0.82 and 0.84
same,Sphingomyelin (d36:2) level vs controls,HepG2 cells [1],0.73 and 0.90 and 0.85 and 0.87 and 0.88
same,Sphingomyelin (d37:1) level vs controls,HepG2 cells [1],0.70 and 0.80 and 0.79 and 0.76
same,Sphingomyelin (d38:1) level vs controls,HepG2 cells [1],0.88 and 0.84 and 0.85 and 0.87 and 0.91
same,Sphingomyelin (d38:2) level vs controls,HepG2 cells [1],0.61 and 0.66 and 0.64 and 0.67 and 0.71
same,Sphingomyelin (d39:1) level vs controls,HepG2 cells [1],0.77 and 0.83 and 0.87 and 0.81 and 0.86
same,Sphingomyelin (d40:2) level vs controls,HepG2 cells [1],0.73 and 0.83 and 0.81 and 0.87 and 0.78 and 0.84
same,Sphingomyelin (d41:2) level vs controls,HepG2 cells [1],0.78 and 0.79 and 0.82 and 0.88 and 0.77 and 0.80
same,Sphingomyelin (d42:2) level vs controls,HepG2 cells [1],0.86 and 0.95 and 0.81 and 0.98 and 0.89 and 0.91
same,Taurine level vs controls,HepG2 cells [1],0.93 and 0.92 and 0.68 and 0.90 and 0.88
same,Triacylglycerol (C34:1.C18:3) level vs controls,HepG2 cells [1],1.57 and 2.06 and 2.37 and 1.58 and 1.93 and 2.00
same,Triacylglycerol (C34:2.C18:0) level vs controls,HepG2 cells [1],1.63 and 1.54 and 1.78 and 1.17 and 1.31 and 1.39
same,Triacylglycerol (C34:2.C18:1) level vs controls,HepG2 cells [1],1.40 and 1.62 and 1.81 and 1.26 and 1.79 and 1.43
same,Triacylglycerol (C36:4.C16:0) level vs controls,HepG2 cells [1],1.74 and 2.34 and 2.73 and 1.73 and 1.97 and 2.11
same,Triacylglycerol (C36:4.C18:0) level vs controls,HepG2 cells [1],1.72 and 1.82 and 2.28 and 2.15 and 2.38 and 2.26
same,"viability at 48 h, 1000 μM",[2],71 to 84%
same,"Percentage of viability (ATP) compared to the vehicle control, Bezafibrate positive control",HepG2 cells [3],84.1 ± 2.3% and 76.3 ± 3.2% and 75.0 ± 1.5% and 71.8 ± 2.8% and 78.0 ± 0.7% and 79.3 ± 2.2%
